Assay: Stability of cannabinoid compounds and Vitamin E components in Beverage 2 (AB Red) by LCMSMS
Type: physicochemical

Measured: Stability of Plant-Derived Cannabinoid Compounds in AB Red

Procedure: The stability of the plant-derived cannabinoid compounds and Vitamin E components of the beverage stored 8° C. and at room temperature (21-25° C.) were monitored, over a period of 570 days via Liquid Chromatography-tandem Mass Spectrometry [LCMSMS, AGilent 6590, C18, 3×50 mm, 2.7 m (Agilent InfinityLab Poroshell 120 EC-C18), Electrospray Ionization detector]. The LCMSMS was calibrated for 0-50 ng/ml cannabinoids with the same resin material used in the preparation of the concentrates. At each time period, 100 ml of beverage was diluted with 10 ml of methanol and injected into the LCMSMS for analysis.

C=C(C)[C@@H]1CCC(C)=C[C@H]1c1c(O)cc(CCC)cc1O [CBDV, cannabidivarin]
0.197 µg/mL: stored at 8° C., 2 days | stored at 8° C., 24 days | stored at 8° C., 29 days
0.201 µg/mL: stored at 8° C., 9 days
0.192 µg/mL: stored at 8° C., 180 days | stored at 8° C., 240 days
0.190 µg/mL: stored at 8° C., 480 days
0.183 µg/mL: stored at 8° C., 570 days
0.193 µg/mL: stored at 8° C., 120 days | stored at 8° C., 210 days | stored at 8° C., 300 days | stored at 8° C., 360 days | stored at 8° C., 420 days
0.185 µg/mL: stored at 8° C., 540 days
0.199 µg/mL: stored at 8° C., 3 days | stored at 8° C., 19 days | stored at 8° C., 25 days | stored at 8° C., 26 days | stored at 8° C., 60 days
0.18 µg/mL: stored at 21-25° C., 570 days
0.195 µg/mL: stored at 8° C., 11 days | stored at 8° C., 16 days | stored at 8° C., 17 days | stored at 8° C., 18 days | stored at 8° C., 270 days | stored at 8° C., 450 days
0.20 µg/mL: stored at 21-25° C., 0 days | stored at 21-25° C., 1 days | stored at 21-25° C., 2 days | stored at 21-25° C., 3 days | stored at 21-25° C., 8 days | stored at 21-25° C., 9 days | stored at 21-25° C., 10 days | stored at 21-25° C., 11 days | stored at 21-25° C., 12 days | stored at 21-25° C., 15 days | stored at 21-25° C., 17 days | stored at 21-25° C., 18 days | stored at 21-25° C., 22 days | stored at 21-25° C., 30 days | stored at 21-25° C., 60 days | stored at 21-25° C., 150 days | stored at 21-25° C., 180 days | stored at 21-25° C., 240 days | stored at 21-25° C., 270 days
0.200 µg/mL: stored at 8° C., 0 days | stored at 8° C., 22 days | stored at 8° C., 30 days
0.19 µg/mL: stored at 21-25° C., 5 days | stored at 21-25° C., 16 days | stored at 21-25° C., 19 days | stored at 21-25° C., 23 days | stored at 21-25° C., 24 days | stored at 21-25° C., 25 days | stored at 21-25° C., 26 days | stored at 21-25° C., 29 days | stored at 21-25° C., 90 days | stored at 21-25° C., 120 days | stored at 21-25° C., 210 days | stored at 21-25° C., 300 days | stored at 21-25° C., 330 days | stored at 21-25° C., 360 days | stored at 21-25° C., 390 days | stored at 21-25° C., 420 days | stored at 21-25° C., 450 days | stored at 21-25° C., 480 days | stored at 21-25° C., 510 days | stored at 21-25° C., 540 days
0.191 µg/mL: stored at 8° C., 330 days
0.198 µg/mL: stored at 8° C., 5 days | stored at 8° C., 8 days | stored at 8° C., 12 days | stored at 8° C., 150 days
0.196 µg/mL: stored at 8° C., 90 days
0.184 µg/mL: stored at 8° C., 510 days
0.194 µg/mL: stored at 8° C., 1 days | stored at 8° C., 10 days | stored at 8° C., 15 days | stored at 8° C., 23 days | stored at 8° C., 390 days

— US20260130395A1, “Water Dispersible Botanical Compositions” (Aquila Black Limited, priority 2021, published 2026)
